Experimental data published in ChEMBL document CHEMBL5728247, “Kinase inhibitors for the treatment of disease” (2021).

Molecular target: Tyrosine-protein kinase BTK (Homo sapiens, UniProt Q06187)
Experiment: Kinase Assay: 1. Optimization of kinase concentration required to determine ATP Km,app. The assay was first performed at a high concentration of ATP (1 mM) against a dilution series of kinase in order to determine the amount of kinase required to elicit an approximately 80% change between the minimum and maximum TR-FRET emission ratios (the EC80 value).2. Determination of ATP Km,app. Using the concentration of enzyme determined in step 1, the assay was then performed against a dilution series of ATP in order to determine the amount of ATP required to elicit a 50% change between the minimum and maximum TR-FRET emission ratios (the EC50 value). This concentration of ATP was referred to as the “apparent” Km value for ATP, or the ATP Km,app.3. Optimization of kinase concentration required for assay at ATP Km,app. Using the ATP Km,app concentration of ATP determined in step 2, the kinase titration was repeated in order to determine the concentration of kinase required to elicit an approximately 80% change between the minimum and maximum TR-FRET emission ratios at the ATP Km,app concentration of ATP (the EC80 value). This was the concentration of kinase that will be used in an assay to determine an IC50 value for a compound of the invention.

Sequence of Tyrosine-protein kinase BTK (Q06187 whole entry): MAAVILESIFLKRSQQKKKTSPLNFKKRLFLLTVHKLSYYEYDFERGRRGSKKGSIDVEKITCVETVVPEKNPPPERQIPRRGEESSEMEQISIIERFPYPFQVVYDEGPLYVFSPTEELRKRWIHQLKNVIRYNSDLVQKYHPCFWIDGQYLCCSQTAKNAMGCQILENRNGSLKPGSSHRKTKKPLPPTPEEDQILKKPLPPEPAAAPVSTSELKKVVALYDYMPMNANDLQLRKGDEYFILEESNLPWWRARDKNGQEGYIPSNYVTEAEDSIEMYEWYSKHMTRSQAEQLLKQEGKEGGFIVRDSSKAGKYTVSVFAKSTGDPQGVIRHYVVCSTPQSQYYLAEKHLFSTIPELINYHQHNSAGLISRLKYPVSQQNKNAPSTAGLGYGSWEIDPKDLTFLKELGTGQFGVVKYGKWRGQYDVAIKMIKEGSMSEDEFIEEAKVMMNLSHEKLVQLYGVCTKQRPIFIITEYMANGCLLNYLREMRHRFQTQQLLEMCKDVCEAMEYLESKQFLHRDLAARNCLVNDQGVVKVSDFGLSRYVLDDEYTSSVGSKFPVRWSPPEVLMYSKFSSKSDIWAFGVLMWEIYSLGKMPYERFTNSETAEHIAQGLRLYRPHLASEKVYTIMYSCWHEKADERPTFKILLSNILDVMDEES

IC50 | Compound
5.74 nM | C=CC(=O)Nc1cccc(N(C(=O)OCc2ccccc2)c2ccnc(Nc3cnn(CCN4CCOCC4)c3)n2)c1
5.13 nM | C=CC(=O)Nc1cccc(N(C(=O)OCc2ccccc2)c2ccnc(Nc3cnn(C)c3)n2)c1

Compound | IC50
C=CC(=O)Nc1cccc(N(C(=O)OCc2ccccc2)c2ccnc(Nc3cnn(C4CCOCC4)c3)n2)c1 | 3.12 nM
